# Assay results taken from publication PMC6751184, “Heme and hemoglobin utilization by Mycobacterium tuberculosis” (Nature Communications, 2019).
# Target: DppA (Rv3666c), substrate-binding protein of the Dpp transporter (Mycobacterium tuberculosis, UniProt I6X811, W442A)
smiles,measurement,value
C=CC1=C(C)C2=Cc3c(C=C)c(C)c4[n]3[Fe]([Cl])[n]3c(c(C)c(CCC(=O)O)c3=CC3=NC(=C4)C(C)=C3CCC(=O)O)=CC1=N2 [hemin],"SPR; binds but dissociates quickly, reduced affinity",Surface plasmon resonance showed that heme bound to the DppAW442A protein but dissociated quickly
